Experimental data: patent US20230173018A1, “CASPOFUNGIN DERIVATIVES AND ASSAYS FOR EVALUATING ANTIFUNGAL TREATMENT EFFICACY” (priority 2020, published 2023)
Like-named read-outs stand apart in the source and are kept apart here.

What was measured:
Format in all cases: cell-based
[1] = system: C. albicans DPL1016 (DP-A15-10); assay: microbe, parasite or virus in culture
Source text: (§1) The antifungal activities of compounds 1a, 1 and 2 (collectively: caspofungin derivatives) were compared to that of caspofungin and CSF-BOD using a panel of 49 C. albicans and C. glabrata strains (Tables 1 and 2). The panel included ATCC strains and clinical isolates as well a collection of caspofungin-responsive strains and their corresponding isogenic caspofungin-resistant derivatives, constructed by introducing point mutations within and near the defined hotspots in the FKS1 and/or FKS2 genes of the GS complex. Minimal inhibitory concentration (MIC) values for all strains were determined using the broth double dilution method and are summarized in FIG. 2 and Table 2. […] The clinical breakpoints (threshold) for caspofungin-resistance in C. albicans and C. glabrata are 1 μg/mL and 0.5 μg/mL, respectively.

[2] = system: C. albicans SN95; assay: microbe, parasite or virus in culture; details: strain no. 8, SN95, parental RM1000
Source text: as §1

[3] = system: C. albicans T-2076 (DP-194); assay: microbe, parasite or virus in culture
Source text: as §1

[4] = system: C. albicans T-2077 (DP-205); assay: microbe, parasite or virus in culture
Source text: as §1

[5] = system: C. glabrata DPL1086; assay: microbe, parasite or virus in culture
Source text: as §1

[6] = system: C. glabrata TGL00056; assay: microbe, parasite or virus in culture
Source text: as §1

[7] = system: C. glabrata TGL00091; assay: microbe, parasite or virus in culture
Source text: as §1

[8] = system: C. glabrata TGL00107; assay: microbe, parasite or virus in culture
Source text: as §1

[9] = system: C. glabrata TGL00253; assay: microbe, parasite or virus in culture
Source text: as §1

[10] = system: C. glabrata TGL00263; assay: microbe, parasite or virus in culture
Source text: as §1

[11] = system: C. glabrata TGL00264; assay: microbe, parasite or virus in culture
Source text: as §1

[12] = system: C. glabrata TGL00275; assay: microbe, parasite or virus in culture
Source text: as §1

[13] = system: C. glabrata TGL00277; assay: microbe, parasite or virus in culture
Source text: as §1

[14] = system: C. glabrata TGL00291; assay: microbe, parasite or virus in culture
Source text: as §1

[15] = system: C. albicans ATCC 10231; assay: MIC, broth double dilution
Source text: as §1

[16] = system: C. albicans ATCC 24433; assay: MIC, broth double dilution; details: strain no. 6, C. albicans ATCC 24433
Source text: as §1

[17] = system: C. albicans BWP17; assay: MIC, broth double dilution; details: strain no. 9, BWP17, parental RM1000
Source text: as §1

[18] = system: C. albicans SC5314; assay: MIC, broth double dilution; details: strain no. 1, C. albicans SC5314, WT
Source text: as §1

[19] = system: C. albicans SN152; assay: MIC, broth double dilution; details: strain no. 5, C. albicans SN152
Source text: as §1

[20] = system: C. glabrata ATCC 15126; assay: MIC, broth double dilution
Source text: as §1

[21] = system: C. glabrata ATCC 2001; assay: MIC, broth double dilution
Source text: as §1

[22] = system: C. glabrata ATCC 66032; assay: MIC, broth double dilution; details: strain no. 40, C. glabrata ATCC 66032
Source text: as §1

[23] = system: C. glabrata ATCC 90030; assay: MIC, broth double dilution
Source text: as §1

[24] = system: C. glabrata BG2; assay: MIC, broth double dilution; details: strain no. 34, C. glabrata BG2
Source text: as §1

[25] = system: C. glabrata CST109; assay: MIC, broth double dilution; details: strain no. 18, C. glabrata CST109 (parental)
Source text: as §1

[26] = system: C. glabrata CST34; assay: MIC, broth double dilution; details: strain no. 21, C. glabrata CST34 (parental)
Source text: as §1

[27] = system: C. glabrata EF1620; assay: MIC, broth double dilution; details: strain no. 31, C. glabrata EF1620
Source text: as §1

[28] = system: C. glabrata T-190 (11-304); assay: MIC, broth double dilution
Source text: as §1

[29] = system: C. glabrata T-191 (11-331); assay: MIC, broth double dilution
Source text: as §1

[30] = system: C. glabrata T-192 (1775); assay: MIC, broth double dilution
Source text: as §1

[31] = system: C. glabrata T-193 (11-282); assay: MIC, broth double dilution
Source text: as §1

[32] = system: C. glabrata T-982 (11-181); assay: MIC, broth double dilution
Source text: as §1

[33] = system: C. glabrata T-983 (11-079); assay: MIC, broth double dilution
Source text: as §1

[34] = system: C. glabrata T-984 (11-078); assay: MIC, broth double dilution
Source text: as §1

[35] = Candida albicans, read-out: MIC
[36] = Nakaseomyces glabratus, ATCC90030
[37] = Nakaseomyces glabratus, read-out: MIC

Measured: MIC

CC[C@H](C)C[C@H](C)CCCCCCCCC(=O)N[C@H]1C[C@@H](O)[C@@H](NCCN)NC(=O)[C@@H]2[C@@H](O)CCN2C(=O)[C@H]([C@H](O)CCN)NC(=O)[C@H]([C@H](O)[C@@H](O)c2ccc(O)cc2)NC(=O)[C@@H]2C[C@@H](O)CN2C(=O)[C@H]([C@@H](C)O)NC1=O [Caspofungin]
0.031 µg/mL: [17]; [35] | [18]; [35] | [19]; [35]
8 µg/mL: [10]; Nakaseomyces glabratus, TGL00263 | [12]; Nakaseomyces glabratus, TGL00275
0.063 µg/mL: [2]; [35] | [16]; Candida albicans, ATCC24433, read-out: MIC | [26]; [37] | [27]; [37] | [28]; Nakaseomyces glabratus | [29]; Nakaseomyces glabratus | [30]; Nakaseomyces glabratus | [32]; Nakaseomyces glabratus | [33]; Nakaseomyces glabratus | [34]; Nakaseomyces glabratus
> 64 µg/mL: [4]; Candida albicans | [6]; Nakaseomyces glabratus, TGL00056 | [7]; Nakaseomyces glabratus, TGL00091 | [8]; Nakaseomyces glabratus, TGL00107 | [9]; Nakaseomyces glabratus, TGL00253 | [13]; Nakaseomyces glabratus, TGL00277 | [14]; Nakaseomyces glabratus, TGL00291
2 µg/mL: [3]; Candida albicans | [5]; [36] | [11]; Nakaseomyces glabratus, TGL00264
16 µg/mL: [1]; Candida albicans, SC5314
0.125 µg/mL: [15]; Candida albicans, ATCC10231 | [20]; Nakaseomyces glabratus, ATCC15126 | [21]; Nakaseomyces glabratus, ATCC2001 | [22]; Nakaseomyces glabratus, ATCC66032, read-out: MIC | [23]; [36] | [24]; [37] | [25]; [37] | [31]; Nakaseomyces glabratus

CC[C@H](C)C[C@H](C)CCCCCCCCC(=O)N[C@H]1C[C@@H](O)[C@@H](NCCN)NC(=O)[C@@H]2[C@@H](O)CCN2C(=O)[C@H]([C@H](O)CCN)NC(=O)[C@H]([C@H](O)[C@@H](O)c2ccc(OCc3cn(CCCNC(=O)c4ccc(-c5c6ccc(=[N+](C)C)cc-6oc6cc(N(C)C)ccc56)c(C(=O)[O-])c4)nn3)cc2)NC(=O)[C@@H]2C[C@@H](O)CN2C(=O)[C@H]([C@@H](C)O)NC1=O [Compound 1]
>64 µg/mL: [4]; strain no. 15, T-2077 (DP-205), clinical isolate, FKS1 HS1-S645P mutation | [6]; strain no. 22, TGL00056, parental CST34, FKS mutant | [7]; strain no. 35, TGL00091, FKS mutant | [8]; strain no. 23, TGL00107, parental CST34, FKS mutant | [9]; strain no. 20, TGL00253, parental CST109, FKS2 mutant | [10]; strain no. 28, TGL00263, parental CST78, FKS mutant | [11]; strain no. 29, TGL00264, parental CST78, FKS mutant | [13]; strain no. 33, TGL00277, parental EF1620, FKS mutant | [14]; strain no. 36, TGL00291, parental BG2, FKS mutant
1 µg/mL: [20]; strain no. 41, C. glabrata ATCC 15126 | [21]; strain no. 39, C. glabrata ATCC 2001 | [22] | [23]; strain no. 16, C. glabrata ATCC 90030, WT | [24] | [25] | [31]; strain no. 45, T-193 (11-282), clinical isolate
0.5 µg/mL: [2] | [15]; strain no. 11, C. albicans ATCC 10231 | [16] | [26] | [27] | [28]; strain no. 42, T-190 (11-304), clinical isolate | [29]; strain no. 43, T-191 (11-331), clinical isolate | [30]; strain no. 44, T-192 (1775), clinical isolate | [32]; strain no. 46, T-982 (11-181), clinical isolate | [33]; strain no. 47, T-983 (11-079), clinical isolate | [34]; strain no. 48, T-984 (11-078), clinical isolate
8 µg/mL: [5]; strain no. 17, DPL1086, parental ATCC 90030, FKS1 mutant HS1-S629P
32 µg/mL: [3]; strain no. 13, T-2076 (DP-194), clinical isolate, FKS1 HS1-S645F, HS2-R1361R/H mutation
64 µg/mL: [1]; strain no. 3, DPL1016 (DP-A15-10), parental SC5314, FKS1 mutant HS1-S645P | [12]; strain no. 32, TGL00275, FKS mutant
0.25 µg/mL: [17] | [18] | [19]
